Data set [1] can be described thus: Drug uptake in lysosomes of rat H9c2 cells assessed as time required for compound concentration in lysosomes to exceed the cell lysates by HPLC analysis. It counts as ADME, subcellular, Lysosome.
A further data set relates to H9c2. Put plainly: Cytotoxicity against rat H9c2 cells assessed as cell viability at 0.001 to 50 uM under normoxia condition by CCK-8 method. It counts as toxicity, cell-based. The following applies: h9c2, 50 µM, dose 0.001-50 µM. A general note: Formazan colour is commonly taken as a measure of viable cells.

For the molecule `CCC(CC)O[C@@H]1C=C(C(=O)O)C[C@H](N)[C@H]1NC(C)=O` [OSELTAMIVIR CARBOXYLATE], in data set [1], the Time came out at 7.15 min.

Take `CCC(CC)O[C@@H]1C=C(C(=O)OCCN2CCNCC2)C[C@H](N)[C@H]1NC(C)=O`: the Activity entry in the data set with H9c2 is listed as “Non-Toxic”.

With `CCC(CC)O[C@@H]1C=C(C(=O)OCCN(C)C)C[C@H](N)[C@H]1NC(C)=O`, the Activity entry in the data set with H9c2 is given as “Non-Toxic”.

The values are drawn from ChEMBL document CHEMBL5614434, “A Lysosome-Targeting hNEU1 Inhibitor Treats Myocardial Infarction: A Potential Therapeutic Breakthrough” (J Med Chem, 2024).
